Measured values as given in PubChem BioAssay (NCI).
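Step 1: Grow cells in 96-well plates. Step 2: Expose to compound for 48 hours at 5 concentrations. Step 3: Interpolate endpoints linearly; if unreached, use highest concentration. TGI is the concentration that stops growth completely.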

Experiments:
Experiment in all cases: DTP human tumour cell line panel, 48 h
[1] = system: HCC-2998 colon
[2] = system: BT-549 breast
[3] = system: T-47D breast
[4] = system: HOP-92 NSCLC
[5] = system: HL-60(TB) leukemia
[6] = system: SNB-19 CNS
[7] = system: SK-MEL-28 melanoma
[8] = system: K-562 leukemia
[9] = system: OVCAR-5 ovarian
[10] = system: 786-0 renal
[11] = system: A498 renal
[12] = system: A549 NSCLC
[13] = system: MOLT-4 leukemia
[14] = system: SF-268 CNS
[15] = system: HT29 colon
[16] = system: COLO 205 colon
[17] = system: SW-620 colon
[18] = system: MDA-MB-231 breast
[19] = system: HCT-15 colon
[20] = system: NCI-H522 lung
[21] = system: KM12 colon
[22] = system: CCRF-CEM leukemia
[23] = system: SK-MEL-5 melanoma
[24] = system: NCI-H23 lung
[25] = system: U251 CNS
[26] = system: EKVX NSCLC
[27] = system: ACHN renal
[28] = system: NCI/ADR-RES ovarian
[29] = system: NCI-H226 lung
[30] = system: LOX IMVI melanoma
[31] = system: SF-295 CNS
[32] = system: SF-539 CNS
[33] = system: IGROV1 ovarian
[34] = system: UACC-257 melanoma
[35] = system: MCF7 breast
[36] = system: RPMI-8226 leukemia
[37] = system: PC-3 prostate
[38] = system: SK-OV-3 ovarian
[39] = system: UO-31 renal
[40] = system: TK-10 renal
[41] = system: HOP-62 NSCLC
[42] = system: CAKI-1 renal
[43] = system: OVCAR-3 ovarian
[44] = system: HCT-116 colon
[45] = system: M14 melanoma
[46] = system: OVCAR-8 ovarian
[47] = system: MDA-MB-435
[48] = system: UACC-62 melanoma
[49] = system: OVCAR-4 ovarian
[50] = system: SN12C renal
[51] = system: DU-145 prostate
[52] = system: SK-MEL-2 melanoma
[53] = system: MALME-3M melanoma
[54] = system: SNB-75 CNS
[55] = system: RXF 393 renal
[56] = system: HS 578T breast

Q: Which results are given for `OCC(O)COCn1cc(Cn2ncc3c(SCc4ccccc4)ncnc32)nn1` (stereo unspecified)?
A: TGI [1]: > 100 µM; TGI [2]: > 100 µM; TGI [3]: > 100 µM; TGI [4]: > 100 µM; TGI [5]: > 100 µM; TGI [6]: > 100 µM; TGI [7]: > 100 µM; TGI [8]: > 100 µM; TGI [9]: > 100 µM; TGI [10]: > 100 µM; TGI [11]: > 100 µM; TGI [12]: > 100 µM; TGI [13]: > 100 µM; TGI [14]: > 100 µM; TGI [15]: > 100 µM; TGI [16]: > 100 µM; TGI [17]: > 100 µM; TGI [18]: > 100 µM; TGI [19]: > 100 µM; TGI [20]: 73 µM; TGI [21]: > 100 µM; TGI [22]: > 100 µM; TGI [23]: > 100 µM; TGI [24]: > 100 µM; TGI [25]: > 100 µM; TGI [26]: > 100 µM; TGI [27]: > 100 µM; TGI [28]: > 100 µM; TGI [29]: > 100 µM; TGI [30]: > 100 µM; TGI [31]: > 100 µM; TGI [32]: > 100 µM; TGI [33]: > 100 µM; TGI [34]: > 100 µM; TGI [35]: > 100 µM; TGI [36]: > 100 µM; TGI [37]: > 100 µM; TGI [38]: > 100 µM; TGI [39]: > 100 µM; TGI [40]: > 100 µM; TGI [41]: > 100 µM; TGI [42]: > 100 µM; TGI [43]: > 100 µM; TGI [44]: > 100 µM; TGI [45]: > 100 µM; TGI [46]: > 100 µM; TGI [47]: > 100 µM; TGI [48]: > 100 µM; TGI [49]: > 100 µM; TGI [50]: > 100 µM; TGI [51]: > 100 µM; TGI [52]: > 100 µM

Q: How did the TGI [1] turn out when `COc1cc([C@@H]2c3cc4c(cc3[C@H](OC3OC5COC(c6ccco6)OC5C(O)C3O)C3COC(=O)[C@@H]32)OCO4)cc(OC)c1OC` (stereo partly specified) was run?
A: > 100 µM

Q: What about the TGI [2] of the same compound?
A: 85.7 µM

Q: And the TGI [3]?
A: > 100 µM

Q: What about the TGI [4] of the same compound?
A: > 100 µM

Q: And the TGI [5]?
A: > 100 µM

Q: What about the TGI [6] of the same compound?
A: > 100 µM

Q: What about the TGI [9] of the same compound?
A: > 100 µM

Q: What about the TGI [10] of the same compound?
A: > 34.5 µM

Q: What about the TGI [12] of the same compound?
A: > 100 µM

Q: What about the TGI [14] of the same compound?
A: > 100 µM

Q: And the TGI [15]?
A: > 100 µM

Q: And the TGI [16]?
A: > 31.3 µM

Q: And the TGI [17]?
A: > 100 µM

Q: What about the TGI [18] of the same compound?
A: > 100 µM

Q: What about the TGI [19] of the same compound?
A: > 100 µM

Q: And the TGI [53]?
A: > 100 µM

Q: What about the TGI [20] of the same compound?
A: > 57.3 µM

Q: What about the TGI [21] of the same compound?
A: > 100 µM

Q: What about the TGI [23] of the same compound?
A: > 72.4 µM

Q: And the TGI [24]?
A: > 79.4 µM

Q: And the TGI [25]?
A: > 100 µM

Q: And the TGI [27]?
A: > 59.3 µM

Q: And the TGI [28]?
A: > 80.1 µM

Q: And the TGI [29]?
A: > 100 µM

Q: And the TGI [30]?
A: > 100 µM

Q: What about the TGI [31] of the same compound?
A: > 100 µM

Q: What about the TGI [32] of the same compound?
A: > 100 µM

Q: And the TGI [33]?
A: > 52.7 µM

Q: What about the TGI [54] of the same compound?
A: > 100 µM

Q: And the TGI [34]?
A: > 100 µM

Q: What about the TGI [55] of the same compound?
A: > 100 µM

Q: What about the TGI [35] of the same compound?
A: > 53.6 µM

Q: What about the TGI [36] of the same compound?
A: > 100 µM

Q: And the TGI [37]?
A: > 35.9 µM

Q: What about the TGI [38] of the same compound?
A: > 100 µM

Q: What about the TGI [39] of the same compound?
A: > 100 µM

Q: What about the TGI [40] of the same compound?
A: > 100 µM

Q: And the TGI [41]?
A: > 100 µM

Q: And the TGI [42]?
A: > 69.9 µM

Q: What about the TGI [43] of the same compound?
A: > 24.6 µM

Q: And the TGI [44]?
A: > 100 µM

Q: What about the TGI [45] of the same compound?
A: > 100 µM

Q: And the TGI [56]?
A: > 100 µM

Q: And the TGI [46]?
A: > 100 µM

Q: What about the TGI [47] of the same compound?
A: > 100 µM

Q: What about the TGI [48] of the same compound?
A: > 100 µM

Q: And the TGI [49]?
A: > 100 µM

Q: And the TGI [51]?
A: > 100 µM

Q: What about the TGI [52] of the same compound?
A: > 69.8 µM
